The source made the active and inactive calls. The rule behind the calls is not given here.
Experiments:
RG2 [1] = assay: Induction of cell cycle arrest in rat RG2 cells assessed as accumulation at S phase at 206 uM after 12 hrs by propidium iodide staining based flow cytometric analysis (reference value: 20.15 +/- 2.44%); assay type: functional
DBTRG-05MG [2] = assay: Induction of cell cycle arrest in human DBTRG-05MG cells assessed as p21 expression at 206 uM after 48 hrs by Western blot analysis (reference value: 1); assay type: functional
RG2 [3] = assay: Induction of cell cycle arrest in rat RG2 cells assessed as CDK4 expression at 206 uM after 48 hrs by Western blot analysis (reference value: 1); assay type: functional
RG2 [4] = assay: Induction of apoptosis in rat RG2 cells assessed as phosphorylated caspace-9 expression at 206 uM after 48 hrs by Western blot analysis (reference value: 1); assay type: functional
DBTRG-05MG [5] = assay: Synergistic cytotoxicity against human DBTRG-05MG cells assessed as synergistic effect index at 89.9 uM after 48 hrs in presence of 206 uM TMZ by MTT assay; assay type: functional
RG2 [6] = assay: Synergistic cytotoxicity against rat RG2 cells assessed as combination index at 134.9 uM after 48 hrs in presence of 309 uM TMZ by MTT assay; assay type: functional
[7] = Synergistic cytotoxicity against rat CTX TNA2 cells assessed as synergistic effect index at 89.9 uM after 48 hrs in presence of 309 uM TMZ by MTT assay; assay type: cell-based; conditions: ctx tna2, 48 h
[8] = Synergistic cytotoxicity against rat CTX TNA2 cells assessed as synergistic effect index at 112.4 uM after 48 hrs in presence of 103 uM TMZ by MTT assay; assay type: cell-based; conditions: ctx tna2, 48 h
[9] = Synergistic cytotoxicity against rat CTX TNA2 cells assessed as synergistic effect index at 134.9 uM after 48 hrs in presence of 515.1 uM TMZ by MTT assay; assay type: cell-based; conditions: ctx tna2, 48 h
[10] = Synergistic cytotoxicity against rat CTX TNA2 cells assessed as combination index at 89.9 uM after 48 hrs in presence of 309 uM TMZ by MTT assay; assay type: cell-based; conditions: ctx tna2, 48 h
[11] = Synergistic cytotoxicity against rat CTX TNA2 cells assessed as combination index at 134.9 uM after 48 hrs in presence of 206 uM TMZ by MTT assay; assay type: cell-based; conditions: ctx tna2, 48 h
DBTRG-05MG [12] = assay: Induction of cell cycle arrest in human DBTRG-05MG cells assessed as accumulation at G0/G1 phase at 112.4 uM after 6 hrs in presence of TMZ by propidium iodide staining based flow cytometric analysis (reference value: 47.16 +/- 1.55%); assay type: functional
DBTRG-05MG [13] = assay: Induction of cell cycle arrest in human DBTRG-05MG cells assessed as accumulation at S phase at 112.4 uM after 12 hrs by propidium iodide staining based flow cytometric analysis (reference value: 22.76 +/- 1.56%); assay type: functional
DBTRG-05MG [14] = assay: Induction of cell cycle arrest in human DBTRG-05MG cells assessed as accumulation at S phase at 112.4 uM after 24 hrs by propidium iodide staining based flow cytometric analysis (reference value: 22.76 +/- 1.56%); assay type: functional
DBTRG-05MG [15] = assay: Induction of cell cycle arrest in human DBTRG-05MG cells assessed as accumulation at G2/M phase at 112.4 uM after 48 hrs in presence of TMZ by propidium iodide staining based flow cytometric analysis (reference value: 30.08 +/- 0.1%); assay type: functional
RG2 [16] = assay: Induction of cell cycle arrest in rat RG2 cells assessed as accumulation at G2/M phase at 112.4 uM after 6 hrs in presence of TMZ by propidium iodide staining based flow cytometric analysis (reference value: 20.04 +/- 0.55%); assay type: functional
RG2 [17] = assay: Induction of cell cycle arrest in rat RG2 cells assessed as accumulation at G0/G1 phase at 112.4 uM after 24 hrs by propidium iodide staining based flow cytometric analysis (reference value: 57.81 +/- 1.9%); assay type: functional
RG2 [18] = assay: Induction of cell cycle arrest in rat RG2 cells assessed as accumulation at S phase at 112.4 uM after 24 hrs by propidium iodide staining based flow cytometric analysis (reference value: 20.15 +/- 2.44%); assay type: functional
DBTRG-05MG [19] = assay: Induction of cell cycle arrest in human DBTRG-05MG cells assessed as CyclinB1 expression at 112.4 uM after 48 hrs by Western blot analysis (reference value: 1); assay type: functional
DBTRG-05MG [20] = assay: Induction of cell cycle arrest in human DBTRG-05MG cells assessed as p53 expression at 112.4 uM after 48 hrs in presence of TMZ by Western blot analysis (reference value: 1); assay type: functional
RG2 [21] = assay: Induction of cell cycle arrest in rat RG2 cells assessed as p21 expression at 112.4 uM after 48 hrs in presence of TMZ by Western blot analysis (reference value: 1); assay type: functional
RG2 [22] = assay: Induction of cell cycle arrest in rat RG2 cells assessed as CDK2 expression at 112.4uM after 48 hrs in presence of TMZ by Western blot analysis (reference value: 1); assay type: functional
[23] = Effect on JNK expression in human DBTRG-05MG cells at 112.4uM after 48 hrs by Western blot analysis (reference value: 1); assay type: functional
[24] = Effect on JNK expression in human DBTRG-05MG cells at 112.4uM after 48 hrs in presence of TMZ by Western blot analysis (reference value: 1); assay type: functional
DBTRG-05MG [25] = assay: Inhibition of JNK phosphorylation at Thr183/Tyr185 residues in human DBTRG-05MG cells at 112.4uM after 48 hrs in presence of TMZ by Western blot analysis (reference value: 1); assay type: cell-based
[26] = Effect on ERK expression in rat RG2 cells at 112.4uM after 48 hrs by Western blot analysis (reference value: 1); assay type: functional
DBTRG-05MG [27] = assay: Induction of apoptosis in human DBTRG-05MG cells assessed as Bax expression at 112.4 uM after 48 hrs by Western blot analysis (reference value: 1); assay type: functional
DBTRG-05MG [28] = assay: Induction of apoptosis in human DBTRG-05MG cells assessed as phosphorylated PARP expression at 112.4 uM after 48 hrs by Western blot analysis (reference value: 1); assay type: functional
RG2 [29] = assay: Induction of apoptosis in rat RG2 cells assessed as phosphorylated caspace-9 expression at 112.4 uM after 48 hrs by Western blot analysis (reference value: 1); assay type: functional
RG2 [30] = assay: Induction of apoptosis in rat RG2 cells assessed as phosphorylated caspace-9 expression at 112.4 uM after 48 hrs in presence of TMZ by Western blot analysis (reference value: 1); assay type: functional
RG2 [31] = assay: Induction of apoptosis in rat RG2 cells assessed as cleaved caspace-9 expression at 112.4 uM after 48 hrs in presence of TMZ by Western blot analysis (reference value: 1); assay type: functional
RG2 [32] = assay: Induction of DNA damage in rat RG2 cells assessed as Chk2 phosphorylation at Thr68 at 112.4 uM after 48 hrs in presence of TMZ by Western blot analysis (reference value: 1); assay type: functional
DBTRG-05MG [33] = assay: Antitumour activity against human DBTRG-05MG cells xenografted in BALB/c nude mouse assessed as increase in survival time at 75 mg/kg, sc for every 2 days for 20 days and measured every 2 days; assay type: functional, organism-based; conditions: time 20.0 day

Compound: Cn1nnc2c(C(N)=O)ncn2c1=O [TEMOZOLOMIDE]
- Activity (RG2 [1]): 22.12%
- fold change (FC) (DBTRG-05MG [2]): 2.1
- fold change (FC) (RG2 [3]): 0.6
- fold change (FC) (RG2 [4]): 0.8

Compound: C[C@@H]1CC[C@H]2C(C)(C)[C@H]3C[C@@]12CC[C@@]3(C)O [CEDROL]
- Activity_index (DBTRG-05MG [5]): 0.72
- CI (RG2 [6]): 0.92
- Activity_index [7]: 0.49
- Activity_index [8]: 0.26
- Activity_index [9]: 0.7
- CI [10]: 1.13
- CI [11]: 1.13
- Activity (DBTRG-05MG [12]): 49.17%
- Activity (DBTRG-05MG [13]): 14.32%
- Activity (DBTRG-05MG [14]): 16.03%
- Activity (DBTRG-05MG [15]): 38.26%
- Activity (RG2 [16]): 19.39%
- Activity (RG2 [17]): 72.5%
- Activity (RG2 [18]): 9.09%
- fold change (FC) (DBTRG-05MG [19]): 0.5
- fold change (FC) (DBTRG-05MG [20]): 2.2
- fold change (FC) (RG2 [21]): 2.5
- fold change (FC) (RG2 [22]): 0.4
- fold change (FC) [23]: 0.8
- fold change (FC) [24]: 0.4
- fold change (FC) (DBTRG-05MG [25]): 0.8
- fold change (FC) [26]: 1.1
- fold change (FC) (DBTRG-05MG [27]): 1.3
- fold change (FC) (DBTRG-05MG [28]): 0.7
- fold change (FC) (RG2 [29]): 0.6
- fold change (FC) (RG2 [30]): 0.4
- fold change (FC) (RG2 [31]): 1.8
- fold change (FC) (RG2 [32]): 1.6
- Activity (DBTRG-05MG [33]): Active

Reference: ChEMBL document CHEMBL4699511, “Cedrol, a Sesquiterpene Alcohol, Enhances the Anticancer Efficacy of Temozolomide in Attenuating Drug Resistance via Regulation of the DNA Damage Response and MGMT Expression” (J Nat Prod, 2020)
